Reference: patent publication US10800732B2, “Substituted malonamides and their use as antibacterial drugs” (National Taiwan University, priority 2015, dated 2020)
Values after ≈ are worked out from the molar mass of the structure shown. Where two headings read alike, the source gives them in different places.

Columns and labels:
[1] = tested on: S. epidermidis ATCC 12228; assay: MIC, S. epidermidis ATCC 12228; type: cell-based; details: Staphylococcus epidermidis, ATCC12228; S. epidermidis ATCC 12228; read-out: MIC
[2] = tested on: S. aureus NCTC 8325; type: cell-based, Staphylococcus aureus; details: for time to over 64-fold MIC change: sub-inhibitory concentration, serial passage; for fold MIC change (resistance): sub-inhibitory concentration for 30 consecutive days
[3] = tested on: S. epidermidis ATCC 35984; assay: MIC, S. epidermidis ATCC 35984; type: cell-based; details: Staphylococcus epidermidis, ATCC35984; S. epidermidis ATCC 35984; read-out: MIC
[4] = tested on: MRSA ATCC 33592; assay: MIC, MRSA ATCC 33592; type: cell-based, methicillin-resistant Staphylococcus aureus; details: Staphylococcus aureus, MRSA ATCC 33592, read-out: MIC
[5] = tested on: MRSA ATCC 49476; assay: MIC, MRSA ATCC 49476; type: cell-based, methicillin-resistant Staphylococcus aureus; details: Staphylococcus aureus; MRSA ATCC 49476; read-out: MIC
[6] = tested on: MRSA SCCmec VT; assay: MIC, MRSA SCCmec VT; type: cell-based, methicillin-resistant Staphylococcus aureus; details: Staphylococcus aureus; MRSA SCCmec VT; read-out: MIC
[7] = tested on: S. aureus NCTC 8325; assay: MIC, S. aureus NCTC 8325 (CLSI broth microdilution / agar dilution); type: cell-based, Staphylococcus aureus
[8] = tested on: K-562; assay: Antiproliferative activity, K-562; type: cell-based, human; details: K-562, antiproliferative
Procedure: (§1) In addition to the antibacterial activities, the cytotoxic effects of these malonate derivatives on human cancer cell lines were also assessed.

[9] = tested on: HEK-293; assay: Antiproliferative activity, HEK-293; type: cell-based, human; details: HEK-293, antiproliferative
Procedure: as §1

[10] = Staphylococcus aureus, NCTC8325, S. aureus NCTC 8325, read-out: MIC
[11] = Staphylococcus aureus, NCTC8325
[12] = Staphylococcus aureus, MSSA NCTC 8325, Table 6, read-out: MIC

CC1(C)S[C@@H]2[C@H](NC(=O)[C@H](N)c3ccccc3)C(=O)N2[C@H]1C(=O)O [Ampicillin]
MIC [1]: 32 µg/mL (≈ 91.6 µM) | time to over 64-fold MIC change [2]: ≤ 27 days | MIC [3]: > 32 µg/mL | MIC [4]: > 64 µg/mL | MIC [5]: > 64 µg/mL | MIC [6]: 64 µg/mL (≈ 183 µM) | MIC [7, 10]: 0.25 µg/mL (≈ 0.715 µM)

O=C(N[C@H](CO)[C@H](O)c1ccc([N+](=O)[O-])cc1)C(Cl)Cl [Chloramphenicol]
MIC [1]: 2 µg/mL (≈ 6.19 µM) | fold MIC change (resistance) [2]: no resistance | MIC [4]: 32 µg/mL (≈ 99 µM) | MIC [5]: 8 µg/mL (≈ 24.8 µM) | MIC [6]: 64 µg/mL (≈ 198 µM) | MIC [7, 10]: 4 µg/mL (≈ 12.4 µM)

CC[C@H]1OC(=O)[C@H](C)[C@@H](O[C@H]2C[C@@](C)(OC)[C@@H](O)[C@H](C)O2)[C@H](C)[C@@H](O[C@@H]2O[C@H](C)C[C@H](N(C)C)[C@H]2O)[C@](C)(O)C[C@@H](C)C(=O)[C@H](C)[C@@H](O)[C@]1(C)O [Erythromycin]
MIC [1]: 4 µg/mL (≈ 5.45 µM) | time to over 64-fold MIC change [2]: ≤ 17 days | MIC [3]: 4 µg/mL (≈ 5.45 µM) | MIC [4]: > 64 µg/mL | MIC [5]: > 64 µg/mL | MIC [6]: > 64 µg/mL | MIC [7, 10]: 0.5 µg/mL (≈ 0.681 µM)

CC1COc2c(N3CCN(C)CC3)c(F)cc3c(=O)c(C(=O)O)cn1c23 (centres unmarked) [Ofloxacin]
MIC [1]: 0.25 µg/mL (≈ 0.692 µM) | fold MIC change (resistance) [2]: 8 fold | MIC [4]: 0.25 µg/mL (≈ 0.692 µM) | MIC [5]: 0.5 µg/mL (≈ 1.38 µM) | MIC [6]: 0.25 µg/mL (≈ 0.692 µM) | MIC [7, 11]: 0.125 µg/mL (≈ 0.346 µM)

CO[C@H]1/C=C/O[C@@]2(C)Oc3c(C)c(O)c4c(O)c(c(/C=N/N5CCN(C)CC5)c(O)c4c3C2=O)NC(=O)/C(C)=C\C=C\[C@H](C)[C@H](O)[C@@H](C)[C@@H](O)[C@@H](C)[C@H](OC(C)=O)[C@@H]1C [Rifampicin]
MIC [1]: < 0.004 µg/mL | time to over 64-fold MIC change [2]: ≤ 6 days | MIC [4]: > 64 µg/mL | MIC [5]: 0.25 µg/mL (≈ 0.304 µM) | MIC [6]: 0.5 µg/mL (≈ 0.608 µM) | MIC [7, 11]: 0.125 µg/mL (≈ 0.152 µM)

CCOC(=O)C1=C(N)Oc2ccc(Cl)cc2C1C(C#N)C(=O)OCC (centres unmarked) [SC79]
IC50 [8]: 1.78 µg/mL (≈ 4.88 µM) | IC50 [9]: 2.22 µg/mL (≈ 6.09 µM) | MIC ([7]; S. aureus NCTC 8325, Table 2): 0.5 µg/mL (≈ 1.37 µM)

O=C(Nc1ccc(Cl)c(C(F)(F)F)c1)C1(C(=O)Nc2ccc(Cl)c(C(F)(F)F)c2)CC1 [SC5020, N,N′-bis(4-chloro-3-(trifluoromethyl)phenyl)cyclopropane-1,1-dicarboxamide]
MIC [7, 12]: > 8 µg/mL

C#Cc1cccc(NC(=O)C2(C(=O)Nc3cccc(C#C)c3)CC2)c1 [SC5021, N,N′-bis(3-ethynylphenyl)cyclopropane-1,1-dicarboxamide]
MIC [7, 12]: 8 µg/mL (≈ 24.4 µM)

O=C(Nc1ccccc1)C(CCCl)C(=O)Nc1ccccc1 [SC5022, 2-(2-chloroethyl)-N^1,N^3-diphenylmalonamide]
MIC [7, 12]: > 8 µg/mL

O=C(Nc1cccc(C(F)(F)F)c1)C(CCCl)C(=O)Nc1cccc(C(F)(F)F)c1 [SC5023, 2-(2-chloroethyl)-N^1,N^3-bis(3-(trifluoromethyl)phenyl)malonamide]
MIC ([4]; Table 6): 1 µg/mL (≈ 2.21 µM) | MIC [7, 12]: 2 µg/mL (≈ 4.42 µM)

O=C(Nc1ccc(OC(F)(F)F)cc1)C(CCCl)C(=O)Nc1ccc(OC(F)(F)F)cc1 [SC5024, 2-(2-chloroethyl)-N^1,N^3-bis(4-(trifluoromethoxy)phenyl)malonamide]
MIC ([4]; Table 6): 1 µg/mL (≈ 2.06 µM) | MIC [7, 12]: 1 µg/mL (≈ 2.06 µM)

O=C(Nc1cc(Cl)cc(Cl)c1)C(CCCl)C(=O)Nc1cc(Cl)cc(Cl)c1 [SC5025, 2-(2-chloroethyl)-N^1,N^3-bis(3,5-dichlorophenyl)malonamide]
MIC ([4]; Table 6): 0.25 µg/mL (≈ 0.55 µM) | MIC [7, 12]: 0.25 µg/mL (≈ 0.55 µM)

C#Cc1cccc(NC(=O)C(CCCl)C(=O)Nc2cccc(C#C)c2)c1 [SC5026, 2-(2-chloroethyl)-N^1,N^3-bis(3-ethynylphenyl)malonamide]
MIC [7, 12]: > 8 µg/mL

O=C(Nc1cccc(Cl)c1)C(CCCl)C(=O)Nc1cccc(Cl)c1 [SC5027, 2-(2-chloroethyl)-N^1,N^3-bis(3-chlorophenyl)malonamide]
MIC [7, 12]: > 8 µg/mL

O=C(Nc1cccc([N+](=O)[O-])c1)C(CCCl)C(=O)Nc1cccc([N+](=O)[O-])c1 [SC5028, 2-(2-chloroethyl)-N^1,N^3-bis(3-nitrophenyl)malonamide]
MIC [7, 12]: > 64 µg/mL

Cc1ccc(NC(=O)C(CCCl)C(=O)Nc2ccc(C)c(O)c2)cc1O [SC5029, 2-(2-chloroethyl)-N^1,N^3-bis(3-hydroxy-4-methylphenyl)malonamide]
MIC [7, 12]: 8 µg/mL (≈ 21.2 µM)

O=C(Nc1ccc(Cl)c(O)c1)C(CCCl)C(=O)Nc1ccc(Cl)c(O)c1 [SC5030, N^1,N^3-bis(4-chloro-3-hydroxyphenyl)-2-(2-chloroethyl)malonamide]
MIC [7, 12]: > 16 µg/mL

O=C(Nc1cccc(O)c1)C(CCCl)C(=O)Nc1cccc(O)c1 [SC5031, 2-(2-chloroethyl)-N^1,N^3-bis(3-hydroxyphenyl)malonamide]
MIC [7, 12]: > 64 µg/mL

O=C(Nc1cc(C(F)(F)F)cc(C(F)(F)F)c1)C(CCCl)C(=O)Nc1cc(C(F)(F)F)cc(C(F)(F)F)c1 [SC5032, N,N^3-bis(3,5-bis(trifluoromethyl)phenyl)-2-(2-chloroethyl)malonamide]
MIC [7, 12]: 32 µg/mL (≈ 54.4 µM)

O=C(Nc1ccc([N+](=O)[O-])c(C(F)(F)F)c1)C(CCCl)C(=O)Nc1ccc([N+](=O)[O-])c(C(F)(F)F)c1 [SC5034, 2-(2-chloroethyl)-N^1,N^3-bis(4-nitro-3-(trifluoromethyl)phenyl)malonamide]
MIC [7, 12]: 1 µg/mL (≈ 1.84 µM)

O=C(Nc1cc(Cl)cc(Cl)c1)C(CCCl)C(=O)Nc1cc(C(F)(F)F)cc(C(F)(F)F)c1 (centres unmarked) [SC5036, N^1-(3,5-bis(trifluoromethyl)phenyl)-2-(2-chloroethyl)-N^3-(3,5-dichlorophenyl) malonamide]
MIC ([4]; Table 6): 0.5 µg/mL (≈ 0.958 µM) | MIC [7, 12]: 0.25 µg/mL (≈ 0.479 µM)

C=CCC(C(=O)Nc1ccc(Cl)c(C(F)(F)F)c1)C(=O)Nc1ccc(Cl)c(C(F)(F)F)c1 [SC5037, 2-allyl-N^1,N^3-bis(4-chloro-3-(trifluoromethyl)phenyl)malonamide]
MIC ([4]; Table 6): > 32 µg/mL | MIC [7, 12]: 8 µg/mL (≈ 16 µM)

C#Cc1cccc(NC(=O)C(CC=C)C(=O)Nc2cccc(C#C)c2)c1 [SC5038, 2-allyl-N^1,N^3-bis(3-ethynylphenyl)malonamide]
MIC ([4]; Table 6): > 32 µg/mL | MIC [7, 12]: > 32 µg/mL

C=CCC(C(=O)Nc1cccc(CC)c1)C(=O)Nc1cccc(CC)c1 [SC5039, 2-allyl-N^1,N^3-bis(3-ethylphenyl)malonamide]
MIC ([4]; Table 6): > 32 µg/mL | MIC [7, 12]: > 32 µg/mL

C=CCC(C(=O)Nc1cc(Cl)cc(Cl)c1)C(=O)Nc1cc(Cl)cc(Cl)c1 [SC5040, 2-allyl-N^1,N^3-bis(3,5-dichlorophenyl)malonamide]
MIC ([4]; Table 6): > 32 µg/mL | MIC [7, 12]: > 32 µg/mL

O=C(Nc1cc(Cl)cc(Cl)c1)C(CCCl)C(=O)Nc1ccc([N+](=O)[O-])c(C(F)(F)F)c1 (centres unmarked) [SC5041, 2-(2-chloroethyl)-N^1-(3,5-dichlorophenyl)-N^3-(4-nitro-3-(trifluoromethyl)phenyl)malonamide]
MIC ([4]; Table 6): 0.5 µg/mL (≈ 1 µM) | MIC [7, 12]: 0.5 µg/mL (≈ 1 µM)

CCCNC(=O)C(CCCl)C(=O)NCCC [SC5046, 2-(2-chloroethyl)-N1,N3-dipropylmalonamide]
MIC ([4]; Table 6): > 64 µg/mL | MIC [7, 12]: > 64 µg/mL

CCCCNC(=O)C(CCCl)C(=O)NCCCC [SC5047, N1,N3-dibutyl-2-(2-chloroethyl)malonamide]
MIC ([4]; Table 6): > 64 µg/mL | MIC [7, 12]: > 64 µg/mL

O=C(NC1CCCCC1)C(CCCl)C(=O)NC1CCCCC1 [SC5048, 2-(2-chloroethyl)-N1,N3-dicyclohexylmalonamide]
MIC ([4]; Table 6): > 64 µg/mL | MIC [7, 12]: > 64 µg/mL

CCCNC(=O)C(CCCl)C(=O)Nc1ccc(Cl)c(C(F)(F)F)c1 (centres unmarked) [SC5049, N1-(4-chloro-3-(trifluoromethyl)phenyl)-2-(2-chloroethyl)-N3-propylmalonamide]
MIC ([4]; Table 6): > 64 µg/mL | MIC [7, 12]: > 64 µg/mL

C=CCNC(=O)C(CCCl)C(=O)Nc1ccc(Cl)c(C(F)(F)F)c1 (centres unmarked) [SC5050, N1-allyl-N3-(4-chloro-3-(trifluoromethyl)phenyl)-2-(2-chloroethyl)malonamide]
MIC ([4]; Table 6): > 64 µg/mL | MIC [7, 12]: > 64 µg/mL

C=CCNC(=O)C(CCCl)C(=O)NCC=C [SC5051, N1,N3-diallyl-2-(2-chloroethyl)malonamide]
MIC ([4]; Table 6): > 64 µg/mL | MIC [7, 12]: > 64 µg/mL

CCCCNC(=O)C(CCCl)C(=O)Nc1ccc(Cl)c(C(F)(F)F)c1 (centres unmarked) [SC5052, N1-butyl-N3-(4-chloro-3-(trifluoromethyl)phenyl)-2-(2-chloroethyl)malonamide]
MIC ([4]; Table 6): > 64 µg/mL | MIC [7, 12]: > 64 µg/mL

O=C(Nc1ccc(Cl)c(C(F)(F)F)c1)C(CCCl)C(=O)NC1CCCCC1 (centres unmarked) [SC5053, N1-(4-chloro-3-(trifluoromethyl)phenyl)-2-(2-chloroethyl)-N3-cyclohexylmalonamide]
MIC ([4]; Table 6): > 64 µg/mL | MIC [7, 12]: > 64 µg/mL

CN(C)[C@@H]1C(O)=C(C(N)=O)C(=O)[C@@]2(O)C(O)=C3C(=O)c4c(O)cccc4[C@@](C)(O)[C@H]3C[C@@H]12 [Tetracycline]
MIC [1]: 8 µg/mL (≈ 18 µM) | MIC [3]: 0.25 µg/mL (≈ 0.563 µM) | MIC [4]: > 64 µg/mL | MIC [5]: > 64 µg/mL | MIC [6]: 32 µg/mL (≈ 72 µM)

N^1,N^3-bis(4-pentafluorosulfurphenyl)-2-(2-chloroethyl)malonamide [SC5033]
MIC ([7]; MSSA NCTC 8325, Table 6): 32 µg/mL
